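Values below derive from 48-hour exposures of cells grown in 96-well plates, with endpoints linearly interpolated between the two concentrations bracketing the appropriate inhibition level. The concentration for 50% growth inhibition is given as GI50.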 The source made the active and inactive calls. Cut-off read from the data, not from the text of the source: active = GI50 up to about 1.1 µM and inactive = higher.
Columns and labels:
Experiment in all cases: DTP human tumour cell line panel, 48 h
[1] = tested on: NCI-H522
[2] = tested on: SNB-75
[3] = tested on: MDA-N
[4] = tested on: MCF7
[5] = tested on: CCRF-CEM
[6] = tested on: UO-31
[7] = tested on: OVCAR-4
[8] = tested on: SN12C
[9] = tested on: SW-620
[10] = tested on: EKVX
[11] = tested on: SF-268
[12] = tested on: A549
[13] = tested on: ACHN
[14] = tested on: HL-60
[15] = tested on: SR
[16] = tested on: M14
[17] = tested on: HT-29
[18] = tested on: NCI-H460
[19] = tested on: IGROV-1
[20] = tested on: OVCAR-8
[21] = tested on: SK-OV-3
[22] = tested on: LOX IMVI
[23] = tested on: DU-145
[24] = tested on: NCI/ADR-RES
[25] = tested on: OVCAR-5
[26] = tested on: HOP-62
[27] = tested on: SK-MEL-5
[28] = tested on: KM12
[29] = tested on: HCC 2998
[30] = tested on: 786-0
[31] = tested on: SF-295
[32] = tested on: RXF 393
[33] = tested on: U-251
[34] = tested on: HCT-15
[35] = tested on: MOLT-4
[36] = tested on: SF-539
[37] = tested on: OVCAR-3
[38] = tested on: TK-10
[39] = tested on: NCI-H23
[40] = tested on: SNB-19
[41] = tested on: CAKI-1
[42] = tested on: MDA-MB-435
[43] = tested on: T47D
[44] = tested on: NCI-H226
[45] = tested on: HOP-92
[46] = tested on: RPMI-8226
[47] = tested on: COLO 205
[48] = tested on: PC-3
[49] = tested on: MDA-MB-231
[50] = tested on: HCT-116
[51] = tested on: UACC-257
[52] = tested on: K562
[53] = tested on: UACC-62
[54] = tested on: BT-549
[55] = tested on: Malme-3M
[56] = tested on: SK-MEL-2
[57] = tested on: A498
[58] = tested on: SK-MEL-28
[59] = tested on: Hs-578T

CC(=O)Nc1ccccc1SCCSSCCSc1ccccc1NC(C)=O
GI50 [1]: 16.8 µM (inactive) | GI50 [2]: 24.3 µM (inactive) | GI50 [3]: 25.4 µM (inactive) | GI50 [4]: 38.9 µM (inactive) | GI50 [5]: 23.6 µM (inactive) | GI50 [6]: 17.8 µM (inactive) | GI50 [7]: 22.6 µM (inactive) | GI50 [8]: 32.4 µM (inactive) | GI50 [9]: 39.3 µM (inactive) | GI50 [10]: 43.3 µM (inactive) | GI50 [11]: 38.2 µM (inactive) | GI50 [12]: 25.7 µM (inactive) | GI50 [13]: 20.6 µM (inactive) | GI50 [14]: 17.4 µM (inactive) | GI50 [15]: 34.4 µM (inactive) | GI50 [16]: 31.5 µM (inactive) | GI50 [17]: 28.8 µM (inactive) | GI50 [18]: 25.1 µM (inactive) | GI50 [19]: 20.3 µM (inactive) | GI50 [20]: 38.9 µM (inactive) | GI50 [21]: 27.8 µM (inactive) | GI50 [22]: 20 µM (inactive) | GI50 [23]: 25.6 µM (inactive) | GI50 [24]: 31.8 µM (inactive) | GI50 [25]: 31.5 µM (inactive) | GI50 [26]: 58.6 µM (inactive) | GI50 [27]: 38.5 µM (inactive) | GI50 [28]: 40.1 µM (inactive) | GI50 [29]: 22.3 µM (inactive) | GI50 [30]: 28.4 µM (inactive) | GI50 [31]: 26.7 µM (inactive) | GI50 [32]: 34.2 µM (inactive) | GI50 [33]: 26.5 µM (inactive) | GI50 [34]: 20.7 µM | GI50 [35]: 24 µM (inactive) | GI50 [36]: 24 µM (inactive) | GI50 [37]: 28.8 µM (inactive) | GI50 [38]: 34.1 µM (inactive) | GI50 [39]: 30.1 µM (inactive) | GI50 [40]: 17.7 µM (inactive) | GI50 [41]: 20.8 µM (inactive) | GI50 [42]: 19.5 µM (inactive) | GI50 [43]: 25.6 µM (inactive) | GI50 [44]: 31.1 µM (inactive) | GI50 [45]: 17.5 µM (inactive) | GI50 [46]: 17.9 µM (inactive) | GI50 [47]: 20.4 µM (inactive) | GI50 [48]: 23.1 µM (inactive) | GI50 [49]: 32.3 µM (inactive) | GI50 [50]: 36.2 µM (inactive) | GI50 [51]: 20.7 µM (inactive) | GI50 [52]: 28.6 µM (inactive) | GI50 [53]: 32 µM (inactive) | GI50 [54]: 51.9 µM (inactive) | GI50 [55]: 34.7 µM (inactive) | GI50 [56]: 27.9 µM (inactive)

O=C(CCc1cc(O)cc(O)c1)NCCCNC(=O)CCc1cc(O)cc(O)c1
GI50 [1]: > 100 µM (inactive) | GI50 [3]: > 100 µM (inactive) | GI50 [4]: > 100 µM (inactive) | GI50 [5]: > 100 µM (inactive) | GI50 [6]: > 100 µM (inactive) | GI50 [7]: > 100 µM (inactive) | GI50 [8]: > 100 µM (inactive) | GI50 [9]: > 100 µM (inactive) | GI50 [10]: > 100 µM (inactive) | GI50 [11]: > 100 µM (inactive) | GI50 [12]: > 100 µM (inactive) | GI50 [13]: > 100 µM (inactive) | GI50 [15]: > 100 µM (inactive) | GI50 [16]: > 100 µM (inactive) | GI50 [17]: > 100 µM (inactive) | GI50 [19]: > 100 µM (inactive) | GI50 [20]: > 100 µM (inactive) | GI50 [57]: > 100 µM (inactive) | GI50 [58]: > 100 µM (inactive) | GI50 [21]: > 100 µM (inactive) | GI50 [22]: > 100 µM (inactive) | GI50 [23]: > 100 µM (inactive) | GI50 [24]: > 100 µM (inactive) | GI50 [25]: > 100 µM (inactive) | GI50 [26]: > 100 µM (inactive) | GI50 [27]: > 100 µM (inactive) | GI50 [28]: > 100 µM (inactive) | GI50 [29]: > 100 µM (inactive) | GI50 [30]: > 100 µM (inactive) | GI50 [31]: > 100 µM (inactive) | GI50 [32]: > 100 µM (inactive) | GI50 [33]: > 100 µM (inactive) | GI50 [34]: > 100 µM | GI50 [35]: > 100 µM (inactive) | GI50 [36]: > 100 µM (inactive) | GI50 [37]: > 100 µM (inactive) | GI50 [38]: > 100 µM (inactive) | GI50 [39]: > 100 µM (inactive) | GI50 [40]: > 100 µM (inactive) | GI50 [41]: > 100 µM (inactive) | GI50 [42]: > 100 µM (inactive) | GI50 [43]: > 100 µM (inactive) | GI50 [44]: > 100 µM (inactive) | GI50 [45]: > 100 µM (inactive) | GI50 [46]: > 100 µM (inactive) | GI50 [47]: > 100 µM (inactive) | GI50 [48]: > 100 µM (inactive) | GI50 [49]: > 100 µM (inactive) | GI50 [50]: > 100 µM (inactive) | GI50 [51]: > 100 µM (inactive) | GI50 [52]: > 100 µM (inactive) | GI50 [53]: > 100 µM (inactive) | GI50 [54]: > 100 µM (inactive) | GI50 [55]: > 100 µM (inactive) | GI50 [56]: > 100 µM (inactive)

CC1CC[P+](c2ccccc2)(c2ccccc2)c2c1ccc1ccccc21 (stereo not given)
GI50 [1]: 1.16 µM (inactive) | GI50 [2]: 1.79 µM (inactive) | GI50 [4]: 2.14 µM (inactive) | GI50 [5]: 4.3 µM (inactive) | GI50 [6]: 27 µM (inactive) | GI50 [7]: 12.6 µM (inactive) | GI50 [8]: 3.94 µM (inactive) | GI50 [11]: 7.89 µM (inactive) | GI50 [12]: 9.1 µM (inactive) | GI50 [13]: 14 µM (inactive) | GI50 [14]: 2.51 µM (inactive) | GI50 [16]: 5.89 µM (inactive) | GI50 [17]: 2.32 µM (inactive) | GI50 [18]: 2.64 µM (inactive) | GI50 [20]: 2.44 µM (inactive) | GI50 [22]: 2.25 µM (inactive) | GI50 [59]: 1.79 µM (inactive) | GI50 [25]: 5.81 µM (inactive) | GI50 [27]: 1.34 µM (inactive) | GI50 [28]: 3.13 µM (inactive) | GI50 [29]: 6.12 µM (inactive) | GI50 [31]: 3.33 µM (inactive) | GI50 [32]: 9.77 µM (inactive) | GI50 [34]: 40.5 µM | GI50 [35]: 6.75 µM (inactive) | GI50 [36]: 4.82 µM (inactive) | GI50 [39]: 2.4 µM (inactive) | GI50 [40]: 4.07 µM (inactive) | GI50 [41]: 7.85 µM (inactive) | GI50 [42]: 2.78 µM (inactive) | GI50 [43]: 0.698 µM (active) | GI50 [45]: 1.15 µM (inactive) | GI50 [48]: 1.51 µM (inactive) | GI50 [50]: 2.67 µM (inactive) | GI50 [51]: 0.607 µM (active) | GI50 [52]: 0.942 µM (active) | GI50 [53]: 4.13 µM (inactive) | GI50 [54]: 1.23 µM (inactive) | GI50 [56]: 1.79 µM (inactive)
